Assay results taken from US20040039022A1, “NMDA receptor agonist pharmaceutical compositions” (Pfizer Inc., priority 2000, published 2004).

Tests used:
Type in all cases: physicochemical
[1] = pH of buffered 10 mgA/ml formulations of the Compound at 70° C.
Description: Table 2 exemplifies the use of various buffers to stabilize the pH of formulations containing 10 mgA/ml of the Compound. [table]

[2] = Maximum solubility of the Compound; conditions: at 5° C.
Experimental: A preferred presentation of the composition aspects of the invention comprises the Compound at a concentration of 10 mgA/mL. This concentration is near the maximum solubility of the Compound (about 12 mgA/mL at 5° C.). The preferred solution of the composition is 10 mM lactate buffer. However, those skilled in the art will appreciate that buffer solutions of other anions may be used, including, but not limited to, buffer solutions of the anions acetate, citrate, tartrate and formate.

[3] = pH shift of aqueous formulations (water only; terminal sterilization of lactate buffered formulation)
Description: Aqueous solutions of the Compound are susceptible to pH shift. […] When the Compound is formulated with only water, the pH of the formulation increases above 5. This pH shift results in conditions favorable to the oxidative degradation reaction, thus accelerating the degradation of the aqueous formulation. The increase in pH also decreases the solubility of the compound, thereby increasing the possibility of precipitation out of solution. Vials are preferably sterilized by terminal sterilization methods employing an autoclave. Preferably, sterilization is for 8 minutes at 121° C. Sterilization may cause a slight shift of pH. In the lactate buffered formulation, pH shifted slightly down. In order to achieve a mid-point in the preferred pH range, the initial pH is preferably set to 4.5. The terminal sterilization cycle reduces the pH to about 4.2. The pH of the initial formulation is set at pH 4.5 to accommodate the slight pH down-shifting upon terminal sterilization. […] Sodium hydroxide and hydrochloric acid are used as needed to adjust the solution to the desired pH.

## C[C@@H]([C@@H](O)c1ccc(O)cc1)N1CCC(O)(c2ccccc2)CC1 [Compound, (1S,2S)-1-(4-Hydroxyphenyl)-2-(4-hydroxy4-phenylpiperidin-1-yl)-1-propanol]
[1]; 3 mM lactate, 2 days
  pH at 70° C.: 4.21
[1]; 3 mM lactate, 7 days
  pH at 70° C.: 4.20
[1]; 3 mM lactate, 21 days
  pH at 70° C.: 4.14
[1]; 3 mM lactate, Initial (post-TS)
  pH at 70° C.: 4.24
[1]; 10 mM acetate, 4 days
  pH at 70° C.: 4.14
[1]; 10 mM acetate, 7 days
  pH at 70° C.: 4.14
[1]; 10 mM acetate, 21 days
  pH at 70° C.: 4.17
[1]; 10 mM acetate, Initial (post-TS)
  pH at 70° C.: 4.16
[1]; 10 mM benzoate, 4 days
  pH at 70° C.: 4.16
[1]; 10 mM benzoate, 7 days
  pH at 70° C.: 4.20
[1]; 10 mM benzoate, Initial (post-TS)
  pH at 70° C.: 4.21
[1]; 10 mM citrate, 2 days
  pH at 70° C.: 4.16
[1]; 10 mM citrate, 7 days
  pH at 70° C.: 4.17
[1]; 10 mM citrate, 21 days
  pH at 70° C.: 4.11
[1]; 10 mM citrate, Initial (post-TS)
  pH at 70° C.: 4.16
[1]; 10 mM formate, 2 days
  pH at 70° C.: 4.18
[1]; 10 mM formate, 7 days
  pH at 70° C.: 4.16
[1]; 10 mM formate, 21 days
  pH at 70° C.: 4.13
[1]; 10 mM formate, Initial (post-TS)
  pH at 70° C.: 4.17
[1]; 10 mM tartrate, 2 days
  pH at 70° C.: 4.17
[1]; 10 mM tartrate, 7 days
  pH at 70° C.: 4.17
[1]; 10 mM tartrate, 21 days
  pH at 70° C.: 4.07
[1]; 10 mM tartrate, Initial (post-TS)
  pH at 70° C.: 4.15
[2]
  maximum solubility: about 12 mgA/mL
[3]; Compound formulated with only water
  pH of the formulation: above 5
[3]; lactate buffered formulation, initial pH 4.5, autoclave 8 minutes at 121° C.
  pH after terminal sterilization cycle: about 4.2
